{"source": "paper PMC12420824", "about": "“Discovery of a selective alpha-kinase 1 inhibitor for the rare genetic disease ROSAH syndrome” (Nature Communications, 2025)", "key": {"full-length ALPK1 [1]": {"biological_target": "T1, full-length ALPK1 (Homo sapiens, UniProt Q96QP1)", "T1 construct": "recombinant full-length ALPK1 kinase purified from Sf9 cells; 3xFlag (C); made in house; host or cells: Sf9 insect cells (baculovirus, pFAST-BAC)", "T1 sequence (Q96QP1 whole entry)": "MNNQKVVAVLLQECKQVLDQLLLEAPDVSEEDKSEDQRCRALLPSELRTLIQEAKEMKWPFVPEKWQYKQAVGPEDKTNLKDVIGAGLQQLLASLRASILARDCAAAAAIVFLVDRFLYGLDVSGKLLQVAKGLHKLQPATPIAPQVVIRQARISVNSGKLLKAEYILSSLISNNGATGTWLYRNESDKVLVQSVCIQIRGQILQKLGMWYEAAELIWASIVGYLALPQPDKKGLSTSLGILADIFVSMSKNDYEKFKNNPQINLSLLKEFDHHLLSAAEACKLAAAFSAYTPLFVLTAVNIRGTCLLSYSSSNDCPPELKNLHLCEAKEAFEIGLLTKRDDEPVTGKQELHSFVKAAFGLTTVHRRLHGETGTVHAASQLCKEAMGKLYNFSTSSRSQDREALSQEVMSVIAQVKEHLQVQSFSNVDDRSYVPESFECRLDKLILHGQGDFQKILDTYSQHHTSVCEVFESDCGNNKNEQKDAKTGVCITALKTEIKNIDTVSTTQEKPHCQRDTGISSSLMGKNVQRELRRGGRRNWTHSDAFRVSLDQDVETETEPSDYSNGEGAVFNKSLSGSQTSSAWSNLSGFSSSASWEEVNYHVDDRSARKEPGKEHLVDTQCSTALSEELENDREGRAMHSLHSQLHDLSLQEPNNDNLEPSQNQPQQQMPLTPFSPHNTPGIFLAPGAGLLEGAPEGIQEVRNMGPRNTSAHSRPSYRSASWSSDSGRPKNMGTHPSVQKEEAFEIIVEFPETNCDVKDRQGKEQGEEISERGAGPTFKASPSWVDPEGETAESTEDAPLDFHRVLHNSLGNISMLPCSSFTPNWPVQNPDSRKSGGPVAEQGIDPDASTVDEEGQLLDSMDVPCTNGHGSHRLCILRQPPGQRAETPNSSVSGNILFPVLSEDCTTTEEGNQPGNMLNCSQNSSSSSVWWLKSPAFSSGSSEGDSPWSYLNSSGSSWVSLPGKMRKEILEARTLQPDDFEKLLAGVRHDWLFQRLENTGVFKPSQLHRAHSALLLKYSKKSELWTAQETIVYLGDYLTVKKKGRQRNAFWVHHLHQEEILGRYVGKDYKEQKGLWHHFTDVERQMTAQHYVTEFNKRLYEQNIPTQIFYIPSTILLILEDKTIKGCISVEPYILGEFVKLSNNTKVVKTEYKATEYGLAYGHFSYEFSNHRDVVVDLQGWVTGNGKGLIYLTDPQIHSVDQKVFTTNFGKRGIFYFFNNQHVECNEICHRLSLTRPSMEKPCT", "assay": "Surface plasmon resonance (SPR)", "type": "binding", "conditions": "with 500 nM ADP-L-heptose", "description": "SPR assays were conducted on a Biacore 8 K (Cytiva). […] For analyte testing, flow rates were maintained at 30 µL/min. […] The data collection rate was 10 Hz, and all data were double referenced and solvent corrected. Analysis was performed using Biacore Insight Evaluation software version 5. The 1:1 kinetic binding affinity models were used to fit the data, and all parameters were fitted globally."}, "full-length ALPK1 [2]": {"biological_target": "T1, full-length ALPK1", "assay": "Thermal shift assay (TSA)", "type": "binding", "conditions": "for TSA Tm Increase: compound at 10 μM; for increase in melting temperature (Tm): pilot TSA screen / assay validation", "description": "A small molecule library containing ~160,000 compounds (HTS Diversity V2) was prepared by WuXi AppTec (Shanghai, China) in 384 well thin-wall qPCR plates, with 20 nL of 10 mM compound preparations in each well. On each screening plate, 2 columns of wells were loaded with 20 nL of pure DMSO to leave spaces for negative controls (no compounds) and the positive control (AS-252424). […] The mixture was spun down at 1000 rpm for 1 min, then immediately applied to a protein melting reaction on a Roche LightCycler® 480 II Real-time PCR system, heating the mixture from 30 °C to 50 °C at the ramp rate of 0.02 °C/s while continuously acquiring the fluorescence signal. The melting temperature (Tm) of the ALPK1 protein with or without each compound was calculated using the Protein Thermal Shift™ Analysis Desktop Software v1.2 (Thermo Fisher Scientific). For positive control wells, 40 μM AS-252424 in 5 μl compound solvent was added manually and used as a positive control in the thermal shift screening."}, "ALPK1 [3]": {"biological_target": "T2, ALPK1 (Homo sapiens, UniProt Q96QP1)", "T2 sequence (Q96QP1 whole entry)": "as above", "assay": "Western blotting-based in vitro kinase assay", "type": "biochemical", "conditions": "20 µM", "description": "Compounds were tested at a single final concentration of 20 μM in an in vitro kinase assay including 30 nM recombinant ALPK1 (purified from 293-F cells stimulated with 4% s.t. lysate 4 h before cell lysis) and 1.6 μM His-tagged TIFA in a 20 µl volume. […] An in vitro kinase reaction was conducted at 27 °C for 40 min in the following buffer: 20 mM HEPES pH 7.0, 1 mM TCEP, 10 mM MgCl2, 0.1 mM Na3VO4, 0.6 μM BSA, 5% DMSO and 25 μM ATP. […] After these in vitro kinase reactions, the kinase-substrate mix was fractionated by electrophoresis on denaturing SDS-PAGE gels and transferred to Immobilon-P PVDF membranes (Millipore, MA, USA). Membranes were blocked with 5% milk in TBS with 0.1% Triton-X100. Phosphorylated TIFA were detected by incubating the membrane with an anti-phospho-threonine (#9386, Cell Signaling Technology, Danvers, MA, USA) antibody. […]\ncompounds used in the Western blotting to measure the ability of compounds to inhibit the ALPK1-mediated phosphorylation of TIFA. (b) Example of the biochemical approach to validate hits from the thermal shift assay screen. ALPK1 binding compounds were tested in triplicate in an in vitro kinase assay at a final concentration of 20 µM, and the inhibitory effect was evaluated by comparing the phosphorylated TIFA level to that for the no compound control after the kinase reaction by Western blotting.\nPhosphorylated TIFA was detected using an anti-phospho-theronine antibody. ALPK1 binders fell into three categories: inhibitors (e.g. WXHTS0017849, WXHTS WXHTS0037341), activators (e.g.\nWXHTS0086594), and those with no effect (e.g. WXHTS0035788). […]"}, "ROSAH patients": {"tested_on": "ROSAH patients", "conditions": "ROSAH patients ref 3; cited from earlier work"}, "[4]": {"tested_on": "HEK-293 cells transfected with GFP-TIFA", "assay": "DF-006-induced TIFAsome formation", "conditions": "1 μM DF-006 alone"}, "ALPK1 [5]": {"biological_target": "T2, ALPK1", "assay": "biochemical"}}, "note": "Where “and” joins values, the source holds several entries; their conditions need not be identical. Identical values can stand only once."}
{"compound": "O=C1NC(=O)/C(=C/c2ccc(-c3ccc(F)cc3O)o2)S1", "note": "[AS-252424]", "values": [{"measurement": "Kd", "setting": "full-length ALPK1 [1]", "value": 1, "unit": "µM"}, {"measurement": "TSA Tm Increase", "setting": "full-length ALPK1 [2]", "value": 3.4, "unit": "°C"}, {"measurement": "increase in melting temperature (Tm)", "setting": "full-length ALPK1 [2]", "value": 3.4, "unit": "°C"}]}
{"compound": "Nc1c(-c2ccncc2)sc2nc(-c3cccs3)ccc12", "note": "[WXHTS0017849]", "values": [{"measurement": "effect on ALPK1-mediated TIFA phosphorylation", "setting": "ALPK1 [3]", "value": "inhibitors"}]}
{"compound": "Nc1nc(C2(c3ccccc3)CCCC2)cs1", "note": "[WXHTS0037341]", "values": [{"measurement": "effect on ALPK1-mediated TIFA phosphorylation", "setting": "ALPK1 [3]", "value": "inhibitors"}]}
{"compound": "Cc1ccc(NC(=O)NCC(O)c2ccc(F)cc2F)cc1Cl", "note": "(stereo not drawn) [WXHTS0086594]", "values": [{"measurement": "effect on ALPK1-mediated TIFA phosphorylation", "setting": "ALPK1 [3]", "value": "activators"}]}
{"compound": "tocilizumab: anti-IL-6 drug given off-label to ROSAH patients", "values": [{"measurement": "intraocular inflammation", "setting": "ROSAH patients", "value": "improved intraocular inflammation (two of two patients)"}]}
{"compound": "Brc1c(Br)c(Br)c2n[nH]nc2c1Br", "note": "[Tbb]", "values": [{"measurement": "Kd", "setting": "full-length ALPK1 [1]", "value": 265, "unit": "µM"}, {"measurement": "TSA Tm Increase", "setting": "full-length ALPK1 [2]", "value": 3.4, "unit": "°C"}]}
{"compound": "O=C(O)c1cc(/N=N/c2ccc(S(=O)(=O)Nc3ccccn3)cc2)ccc1O", "note": "[Sulfasalazine]", "values": [{"measurement": "Kd", "setting": "full-length ALPK1 [1]", "value": 281, "unit": "µM"}, {"measurement": "TSA Tm Increase", "setting": "full-length ALPK1 [2]", "value": 2.0, "unit": "°C"}]}
{"compound": "CC(=O)OCC(F)C1OC(OP(=O)(O)OP(O)(=S)OCC2OC(n3cnc4c(N)ncnc43)C(O)C2O)C(OC(C)=O)C(OC(C)=O)C1OC(C)=O", "note": "[DF-006, D-glycero-D-manno-6-fluoro-2,3,4,7-Ac-heptose-1β-S-ADP, reference compound]", "values": [{"measurement": "Cells with TIFAsomes /GFP positive cells (%)", "setting": "[4]", "value": "50.51% and 61.9% and 51.29% and 50.95% and 60.98%"}]}
{"compound": "Nc1ncnc2c1ncn2[C@@H]1O[C@H](COP(=O)(O)OP(=O)(O)OP(=O)(O)O)[C@@H](O)[C@H]1O", "note": "[ATP]", "values": [{"measurement": "increase in melting temperature (Tm)", "setting": "full-length ALPK1 [2]", "value": 1.1, "unit": "°C"}]}
{"compound": "CO[C@@H]1[C@@H](OC(N)=O)[C@@H](O)[C@H](Oc2ccc3c(O)c(NC(=O)c4ccc(O)c(CC=C(C)C)c4)c(=O)oc3c2C)OC1(C)C", "note": "[Novobiocin]", "values": [{"measurement": "TSA Tm Increase", "setting": "full-length ALPK1 [2]", "value": 1.4, "unit": "°C"}]}
{"compound": "Cc1ccc(C(=O)c2cc(O)c(O)c([N+](=O)[O-])c2)cc1", "note": "[Tolcapone]", "values": [{"measurement": "effect on ALPK1-mediated TIFA phosphorylation", "setting": "ALPK1 [3]", "value": "inhibit ALPK1 activity"}, {"measurement": "Kd", "setting": "full-length ALPK1 [1]", "value": 97, "unit": "µM"}, {"measurement": "TSA Tm Increase", "setting": "full-length ALPK1 [2]", "value": 2.2, "unit": "°C"}]}
{"compound": "CC(=O)Oc1ccccc1-c1cccc(Cn2cccc(C(=O)Nc3ccc(-c4ccccc4)cc3)c2=O)c1", "note": "[WXHTS0035788]", "values": [{"measurement": "effect on ALPK1-mediated TIFA phosphorylation", "setting": "ALPK1 [3]", "value": "no effect"}]}
{"compound": "O=C(O)c1cccnc1Nc1cccc(C(F)(F)F)c1", "note": "[Niflumic acid]", "values": [{"measurement": "Kd", "setting": "full-length ALPK1 [1]", "value": 7, "unit": "µM"}, {"measurement": "TSA Tm Increase", "setting": "full-length ALPK1 [2]", "value": 1.8, "unit": "°C"}]}
{"compound": "CC1=NN(c2ccc(C)c(C)c2)C(=O)/C1=N\\Nc1cccc(-c2cccc(C(=O)O)c2)c1O", "note": "[Eltrombopag]", "values": [{"measurement": "effect on ALPK1-mediated TIFA phosphorylation", "setting": "ALPK1 [3]", "value": "inhibit ALPK1 activity"}, {"measurement": "Kd", "setting": "full-length ALPK1 [1]", "value": 10, "unit": "µM"}, {"measurement": "IC50", "setting": "ALPK1 [5]", "value": 7.6, "unit": "µM"}, {"measurement": "TSA Tm Increase", "setting": "full-length ALPK1 [2]", "value": 3.6, "unit": "°C"}]}
